In publication PMC4450297, “Screening Active Compounds from Garcinia Species Native to China Reveals Novel Compounds Targeting the STAT/JAK Signaling Pathway” (BioMed Research International, 2015):

Legend:
Experiment in all cases: Cell panel screen (CellTiter-Glo)
Format in all cases: cell-based, human
A498 = A498 (listed under Lung), 20 micromolar, 72 hrs
In short: (§1)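 Steps: seed cells, culture overnight at 37°C; add compound diluted in medium from DMSO stock to 20 μM final; incubate 72 h; add detection reagent for 10 min; read luminescence; compute % inhibition versus vehicle controls.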

A704 = A704 (Kidney), 20 micromolar, 72 hrs
In short: as §1

BT-474 = BT-474 (Breast), 20 micromolar, 72 hrs
In short: as §1

BT-549 = BT-549 (Breast), 20 micromolar, 72 hrs
In short: as §1

Bel-7402 = Bel-7402 (Liver), 20 micromolar, 72 hrs
In short: as §1

C3A = C3A (Liver), 20 micromolar, 72 hrs
In short: as §1

C8166 = C8166 (Leukemia), 20 micromolar, 72 hrs
In short: as §1

CCF-STTG1 = CCF-STTG1 (Brain), 20 micromolar, 72 hrs
In short: as §1

CW-2 = CW-2 (Colon), 20 micromolar, 72 hrs
In short: as §1

ChaGo-K-1 = ChaGo-K-1 (Lung), 20 micromolar, 72 hrs
In short: as §1

Colo 205 = details: Colo 205, 20 micromolar, 72 hrs
In short: as §1

HCC1395 = HCC1395 (Breast), 20 micromolar, 72 hrs
In short: as §1

HCC1569 = HCC1569 (Breast), 20 micromolar, 72 hrs
In short: as §1

HCC1599 = HCC1599 (Breast), 20 micromolar, 72 hrs
In short: as §1

HCC1937 = HCC1937 (Breast), 20 micromolar, 72 hrs
In short: as §1

HEC-1-A = HEC-1-A (Uterus), 20 micromolar, 72 hrs
In short: as §1

HGC-27 = HGC-27 (Stomach), 20 micromolar, 72 hrs
In short: as §1

HPAF-II = HPAF-II (Pancreas), 20 micromolar, 72 hrs
In short: as §1

HT-1197 = HT-1197 (Urinary bladder), 20 micromolar, 72 hrs
In short: as §1

J82 = J82 (Urinary bladder), 20 micromolar, 72 hrs
In short: as §1

M059J = M059J (Brain), 20 micromolar, 72 hrs
In short: as §1

MSTO-211-H = MSTO-211-H (Lung), 20 micromolar, 72 hrs
In short: as §1

NCI-H1623 = NCI-H1623 (Lung), 20 micromolar, 72 hrs
In short: as §1

NCI-H1694 = NCI-H1694 (Lung), 20 micromolar, 72 hrs
In short: as §1

NCI-H1770 = NCI-H1770 (Lung), 20 micromolar, 72 hrs
In short: as §1

NCI-H2347 = NCI-H2347 (Lung), 20 micromolar, 72 hrs
In short: as §1

NCI-H2405 = NCI-H2405 (Lung), 20 micromolar, 72 hrs
In short: as §1

NCI-H28 = NCI-H28 (Lung), 20 micromolar, 72 hrs
In short: as §1

NCI-H524 = NCI-H524 (Lung), 20 micromolar, 72 hrs
In short: as §1

Panc 03.27 = Panc 03.27 (Pancreas), 20 micromolar, 72 hrs
In short: as §1

RL95 = RL95 (Uterus), 20 micromolar, 72 hrs
In short: as §1

SW13 = SW13 (Adrenal gland), 20 micromolar, 72 hrs
In short: as §1

T47D = T47D (Breast), 20 micromolar, 72 hrs
In short: as §1

T98G = T98G (Brain), 20 micromolar, 72 hrs
In short: as §1

TCCSUP = TCCSUP (Urinary bladder), 20 micromolar, 72 hrs
In short: as §1

ZR-75-30 = ZR-75-30 (Breast), 20 micromolar, 72 hrs
In short: as §1

Structure (SMILES)	Percent Inhibition (A498) [%]	Percent Inhibition (A704) [%]	Percent Inhibition (BT-474) [%]	Percent Inhibition (BT-549) [%]	Percent Inhibition (Bel-7402) [%]	Percent Inhibition (C3A) [%]	Percent Inhibition (C8166) [%]	Percent Inhibition (CCF-STTG1) [%]	Percent Inhibition (CW-2) [%]	Percent Inhibition (ChaGo-K-1) [%]	Percent Inhibition (Colo 205) [%]	Percent Inhibition (HCC1395) [%]	Percent Inhibition (HCC1569) [%]	Percent Inhibition (HCC1599) [%]	Percent Inhibition (HCC1937) [%]	Percent Inhibition (HEC-1-A) [%]	Percent Inhibition (HGC-27) [%]	Percent Inhibition (HPAF-II) [%]	Percent Inhibition (HT-1197) [%]	Percent Inhibition (J82) [%]	also measured
CCOC(=O)C1OC(Oc2cc(O)c3c(c2)OC(c2ccc(O)c(O)c2)CC3=O)C(O)C(O)C1O (stereo not drawn) [gly-3]	-4	-17	-24	-14	-5	-4	-1	-4	4	-13	-6	9	-8	-18	3	-19	-11	-7	11	-7	Percent Inhibition (M059J): 1%; Percent Inhibition (MSTO-211-H): -3%; Percent Inhibition (NCI-H1623): 8%; Percent Inhibition (NCI-H1694): 1%; Percent Inhibition (NCI-H1770): -10%; Percent Inhibition (NCI-H2347): 4%; Percent Inhibition (NCI-H2405): -3%; Percent Inhibition (NCI-H28): -18%; Percent Inhibition (NCI-H524): -25%; Percent Inhibition (Panc 03.27): 2%; Percent Inhibition (RL95): 6%; Percent Inhibition (SW13): -5%; Percent Inhibition (T47D): -4%; Percent Inhibition (T98G): -3%; Percent Inhibition (TCCSUP): -1%; Percent Inhibition (ZR-75-30): 13%
COc1c(CC=C(C)C)cc2c(=O)c3c(O)cc(O)cc3oc2c1O [gl-16]	34	9	16	27	17	45	77	25	55	57	57	69	50	67	50	46	58	26	37	50	Percent Inhibition (M059J): 33%; Percent Inhibition (MSTO-211-H): 61%; Percent Inhibition (NCI-H1623): 18%; Percent Inhibition (NCI-H1694): 55%; Percent Inhibition (NCI-H1770): 21%; Percent Inhibition (NCI-H2347): 42%; Percent Inhibition (NCI-H2405): 12%; Percent Inhibition (NCI-H28): 41%; Percent Inhibition (NCI-H524): 56%; Percent Inhibition (Panc 03.27): 47%; Percent Inhibition (RL95): 45%; Percent Inhibition (SW13): 41%; Percent Inhibition (T47D): 36%; Percent Inhibition (T98G): 28%; Percent Inhibition (TCCSUP): 63%; Percent Inhibition (ZR-75-30): 93%
CC1(C)C=Cc2c(cc(O)c3c(=O)c4cc5c(c(O)c4oc23)OC(C)(C)C=C5)O1 [Go-16]	12	17	-6	-5	15	22	13	22	17	9	4	68	11	41	25	11	28	15	35	23	Percent Inhibition (M059J): 31%; Percent Inhibition (MSTO-211-H): 34%; Percent Inhibition (NCI-H1623): 33%; Percent Inhibition (NCI-H1694): 5%; Percent Inhibition (NCI-H1770): 25%; Percent Inhibition (NCI-H2347): -8%; Percent Inhibition (NCI-H2405): 27%; Percent Inhibition (NCI-H28): 9%; Percent Inhibition (NCI-H524): -35%; Percent Inhibition (Panc 03.27): 20%; Percent Inhibition (RL95): -8%; Percent Inhibition (SW13): 6%; Percent Inhibition (T47D): 20%; Percent Inhibition (T98G): 29%; Percent Inhibition (TCCSUP): 44%; Percent Inhibition (ZR-75-30): 47%
COc1cc(O)c2c(=O)c3cc4c(c(O)c3oc2c1CC=C(C)C)OC(C)(C)C=C4 [gl-12]	11	3	-2	-2	5	7	25	16	28	38	10	22	19	52	-7	13	34	21	20	17	Percent Inhibition (M059J): 27%; Percent Inhibition (MSTO-211-H): -5%; Percent Inhibition (NCI-H1623): 5%; Percent Inhibition (NCI-H1694): 28%; Percent Inhibition (NCI-H1770): 34%; Percent Inhibition (NCI-H2347): 9%; Percent Inhibition (NCI-H2405): 11%; Percent Inhibition (NCI-H28): 2%; Percent Inhibition (NCI-H524): -2%; Percent Inhibition (Panc 03.27): 24%; Percent Inhibition (RL95): 23%; Percent Inhibition (SW13): -2%; Percent Inhibition (T47D): 21%; Percent Inhibition (T98G): 28%; Percent Inhibition (TCCSUP): 11%; Percent Inhibition (ZR-75-30): 54%
O=C1CC(c2ccc(O)c(O)c2)Oc2cc(OC3OC(C(=O)O)C(O)C(O)C3O)cc(O)c21 (stereo not drawn) [gly-2]	-7	-14	-18	-14	-14	-5	-12	1	-2	-33	-6	8	-6	-8	-2	-19	0	-1	-8	-6	Percent Inhibition (M059J): -1%; Percent Inhibition (MSTO-211-H): 7%; Percent Inhibition (NCI-H1623): 6%; Percent Inhibition (NCI-H1694): -10%; Percent Inhibition (NCI-H1770): -4%; Percent Inhibition (NCI-H2347): -2%; Percent Inhibition (NCI-H2405): -2%; Percent Inhibition (NCI-H28): -21%; Percent Inhibition (NCI-H524): -15%; Percent Inhibition (Panc 03.27): 2%; Percent Inhibition (RL95): 2%; Percent Inhibition (SW13): -14%; Percent Inhibition (T47D): -2%; Percent Inhibition (T98G): -3%; Percent Inhibition (TCCSUP): -4%; Percent Inhibition (ZR-75-30): 15%
